Experimental data reported in PubChem BioAssay AID602354 (The Scripps Research Institute Molecular Screening Center, 2012).

Experiments:
[1] = target: Diacylglycerol lipase-beta (Mus musculus) (UniProt Q91WC9); assay: in situ DAGLb and ABHD6 inhibitor potency – cell-based, gel-based competitive ABPP, fluorescence, dose response, late-stage follow-up (AID 602354); details: mouse cells in situ, DAGLb
[2] = target: Monoacylglycerol lipase ABHD6 (Mus musculus) (UniProt Q8R2Y0); assay: as above; details: mouse cells in situ
Monoacylglycerol lipase ABHD6 (Mus musculus), sequence (Q8R2Y0 whole entry, looked up): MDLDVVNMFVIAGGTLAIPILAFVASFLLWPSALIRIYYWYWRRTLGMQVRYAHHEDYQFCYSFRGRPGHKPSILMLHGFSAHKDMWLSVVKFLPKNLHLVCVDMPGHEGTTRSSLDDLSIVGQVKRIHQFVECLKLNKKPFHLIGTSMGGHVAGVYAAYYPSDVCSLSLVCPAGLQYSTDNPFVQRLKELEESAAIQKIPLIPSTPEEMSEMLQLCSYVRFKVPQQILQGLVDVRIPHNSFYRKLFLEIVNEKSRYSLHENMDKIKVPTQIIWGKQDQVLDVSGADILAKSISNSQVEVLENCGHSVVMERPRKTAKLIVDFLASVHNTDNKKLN

Diacylglycerol lipase-beta (Mus musculus), sequence (Q91WC9 whole entry, looked up): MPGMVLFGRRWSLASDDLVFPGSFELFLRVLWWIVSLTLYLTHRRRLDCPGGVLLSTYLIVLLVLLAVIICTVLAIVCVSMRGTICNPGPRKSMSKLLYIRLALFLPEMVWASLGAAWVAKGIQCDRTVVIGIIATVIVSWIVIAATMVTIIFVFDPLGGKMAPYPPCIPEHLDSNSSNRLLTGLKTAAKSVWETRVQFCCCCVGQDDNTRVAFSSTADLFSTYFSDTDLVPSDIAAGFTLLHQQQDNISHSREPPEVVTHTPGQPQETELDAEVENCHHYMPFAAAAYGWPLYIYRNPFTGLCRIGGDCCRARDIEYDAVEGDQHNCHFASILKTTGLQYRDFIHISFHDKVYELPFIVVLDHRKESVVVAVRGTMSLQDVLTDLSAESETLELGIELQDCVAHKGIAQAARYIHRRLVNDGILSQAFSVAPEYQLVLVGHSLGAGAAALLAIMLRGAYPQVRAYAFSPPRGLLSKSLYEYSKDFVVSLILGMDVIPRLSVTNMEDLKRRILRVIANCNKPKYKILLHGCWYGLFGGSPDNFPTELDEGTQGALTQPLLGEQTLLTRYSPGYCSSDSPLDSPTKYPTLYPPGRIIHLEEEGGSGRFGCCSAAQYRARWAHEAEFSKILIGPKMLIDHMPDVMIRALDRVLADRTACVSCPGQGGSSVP

Compound	IC50 [1]	IC50 [2]
COc1ccccc1-c1ccc(-c2cn(C(=O)N3CCCCC3Cc3ccccc3)nn2)cc1 (centres undefined)	12 nM	0.48 nM
O=C(N1CCCCC1Cc1ccccc1)n1cc(-c2ccc(-c3ccccc3)cc2)nn1 (centres undefined)	16 nM	0.46 nM
